Tests used:
[1] = biological target: Tyrosine-protein kinase Blk (Homo sapiens, UniProt P51451); test: Inhibition of recombinant full length His-tagged human BLK expressed in baculovirus expression system using poly (4:1 Glu, Tyr) as substrate preincubated for 1 hr followed by substrate addition measured after 1 hr by ADP-glo assay
[2] = biological target: T1, Tyrosine-protein kinase JAK3 (Homo sapiens, UniProt P52333); test: Inhibition of recombinant GST-tagged human JAK3 expressed in baculovirus expression system using poly (4:1 Glu, Tyr) as substrate preincubated for 1 hr followed by substrate addition measured after 1 hr by ADP-glo assay
T1 sequence (P52333 whole entry): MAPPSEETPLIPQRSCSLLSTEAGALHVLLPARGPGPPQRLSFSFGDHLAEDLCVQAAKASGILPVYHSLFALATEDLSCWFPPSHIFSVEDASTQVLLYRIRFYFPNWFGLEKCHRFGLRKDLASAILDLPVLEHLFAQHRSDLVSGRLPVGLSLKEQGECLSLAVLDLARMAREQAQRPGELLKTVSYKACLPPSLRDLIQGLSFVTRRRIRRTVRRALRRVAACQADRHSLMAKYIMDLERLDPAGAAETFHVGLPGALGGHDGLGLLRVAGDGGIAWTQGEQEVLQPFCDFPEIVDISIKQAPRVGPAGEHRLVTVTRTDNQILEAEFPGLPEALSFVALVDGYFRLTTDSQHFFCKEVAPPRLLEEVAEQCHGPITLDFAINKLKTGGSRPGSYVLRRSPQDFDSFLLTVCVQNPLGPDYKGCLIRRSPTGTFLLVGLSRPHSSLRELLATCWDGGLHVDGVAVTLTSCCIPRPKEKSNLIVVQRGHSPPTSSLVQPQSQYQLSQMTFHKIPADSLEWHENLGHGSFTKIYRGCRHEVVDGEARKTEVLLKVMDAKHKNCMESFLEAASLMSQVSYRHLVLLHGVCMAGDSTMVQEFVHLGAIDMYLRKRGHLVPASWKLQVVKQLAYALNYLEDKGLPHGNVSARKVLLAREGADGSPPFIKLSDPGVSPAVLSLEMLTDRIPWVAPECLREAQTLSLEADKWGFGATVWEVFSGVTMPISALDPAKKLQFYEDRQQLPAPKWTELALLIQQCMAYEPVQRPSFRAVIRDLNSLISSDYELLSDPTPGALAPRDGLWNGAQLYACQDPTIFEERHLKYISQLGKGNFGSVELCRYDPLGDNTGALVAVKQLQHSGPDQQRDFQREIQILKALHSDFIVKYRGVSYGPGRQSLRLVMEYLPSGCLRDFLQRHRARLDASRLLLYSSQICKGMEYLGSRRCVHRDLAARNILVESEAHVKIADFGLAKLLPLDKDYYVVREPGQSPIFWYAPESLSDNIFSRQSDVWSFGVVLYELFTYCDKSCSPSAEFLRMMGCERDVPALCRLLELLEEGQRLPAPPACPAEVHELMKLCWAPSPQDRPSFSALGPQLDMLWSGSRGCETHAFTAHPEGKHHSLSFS

[3] = biological target: T2, Tyrosine-protein kinase BTK (Homo sapiens, UniProt Q06187); test: Irreversible inhibition of recombinant full length His-tagged human BTK expressed in baculovirus expression system using poly (4:1 Glu, Tyr) as substrate preincubated for 2 to 60 mins followed by substrate addition measured after 1 hr by ADP-glo assay
[4] = biological target: T2, Tyrosine-protein kinase BTK; test: Irreversible inhibition of recombinant full length His-tagged human BTK expressed in baculovirus expression system using poly (4:1 Glu, Tyr) as substrate assessed as ratio of Kinact to Ki preincubated for 2 to 60 mins followed by substrate addition measured after 1 hr by ADP-glo assay
[5] = Antiproliferative activity against mouse BA/F3 cells after 72 hrs by CellTiter-Glo assay; format: cell-based, BaF3
[6] = biological target: Epidermal growth factor receptor (Homo sapiens) (UniProt P00533); test: Inhibition of TEL-fused EGFR (unknown origin) expressed in mouse BA/F3 cells after 72 hrs by CellTiter-Glo assay; format: cell-based
[7] = test system: Epidermal growth factor receptor (Homo sapiens), P00533 [L858R,T790M]; test: Inhibition of TEL-fused EGFR T790M/L858R mutant (unknown origin) expressed in mouse BA/F3 cells after 72 hrs by CellTiter-Glo assay; format: cell-based
[8] = biological target: Tyrosine-protein kinase JAK1 (Homo sapiens) (UniProt P23458); test: Inhibition of TEL-fused JAK1 (unknown origin) expressed in mouse BA/F3 cells after 72 hrs by CellTiter-Glo assay; format: cell-based
[9] = biological target: Tyrosine-protein kinase JAK2 (Homo sapiens) (UniProt O60674); test: Inhibition of TEL-fused JAK2 (unknown origin) expressed in mouse BA/F3 cells after 72 hrs by CellTiter-Glo assay; format: cell-based
[10] = test system: HCT-116; test: Antiproliferative activity against human HCT116 cells after 72 hrs by CellTiter-Glo assay; format: functional; settings: HCT-116, 72 h
[11] = test system: A-431; test: Antiproliferative activity against human A431 cells after 72 hrs by CellTiter-Glo assay; format: functional; settings: A-431, 72 h
[12] = test system: NCI-H460; test: Antiproliferative activity against human NCI-H460 cells after 72 hrs by CellTiter-Glo assay; format: functional; settings: NCI-H460, 72 h
[13] = test system: A549; test: Antiproliferative activity against human A549 cells after 72 hrs by CellTiter-Glo assay; format: functional; settings: A549, 72 h
[14] = test system: NCI-H358; test: Antiproliferative activity against human NCI-H358 cells after 72 hrs by CellTiter-Glo assay; format: functional; settings: NCI-H358, 72 h
[15] = test system: NCI-H1975; test: Antiproliferative activity against human NCI-H1975 cells after 72 hrs by CellTiter-Glo assay; format: functional; settings: NCI-H1975, 72 h
[16] = test system: HeLa; test: Antiproliferative activity against human HeLa cells after 72 hrs by CellTiter-Glo assay; format: functional
[17] = test system: DU-145; test: Antiproliferative activity against human DU145 cells after 72 hrs by CellTiter-Glo assay; format: functional; settings: DU-145, 72 h
[18] = Antiproliferative activity against human RV1 cells after 72 hrs by CellTiter-Glo assay; format: functional; settings: RV-1, 72 h
[19] = test system: LNCaP C4-2; test: Antiproliferative activity against human C4-2 cells after 72 hrs by CellTiter-Glo assay; format: functional; settings: LNCaP C4-2, 72 h
[20] = test system: SU-DHL-2; test: Antiproliferative activity against human SUDHL2 cells after 72 hrs by CellTiter-Glo assay; format: functional; settings: SU-DHL-2, 72 h
[21] = test system: U2932; test: Antiproliferative activity against human U2932 cells after 72 hrs by CellTiter-Glo assay; format: functional; settings: U2932, 72 h
[22] = test system: Pfeiffer; test: Antiproliferative activity against human Pfeiffer cells after 72 hrs by CellTiter-Glo assay; format: functional
[23] = test system: NAMALVA; test: Antiproliferative activity against human NAMALWA cells after 72 hrs by CellTiter-Glo assay; format: functional
[24] = test system: NALM-6; test: Antiproliferative activity against human NALM6 cells after 72 hrs by CellTiter-Glo assay; format: functional; settings: NALM-6, 72 h
[25] = test system: U-937; test: Antiproliferative activity against human U937 cells after 72 hrs by CellTiter-Glo assay; format: functional; settings: U-937, 72 h
[26] = Antiproliferative activity against human PF138 cells after 72 hrs by CellTiter-Glo assay; format: functional
[27] = test system: MOLM-13; test: Antiproliferative activity against human MOLM13 cells after 72 hrs by CellTiter-Glo assay; format: functional; settings: MOLM-13, 72 h
[28] = test system: MOLM-14; test: Antiproliferative activity against human MOLM14 cells after 72 hrs by CellTiter-Glo assay; format: functional; settings: MOLM-14, 72 h
[29] = Antiproliferative activity against human MOLM16 cells after 72 hrs by CellTiter-Glo assay; format: functional; settings: MOLM16, 72 h
[30] = test system: HEL; test: Antiproliferative activity against human HEL cells after 72 hrs by CellTiter-Glo assay; format: functional
[31] = test system: NB-4; test: Antiproliferative activity against human NB4 cells after 72 hrs by CellTiter-Glo assay; format: functional; settings: NB-4, 72 h
[32] = test system: HL-60; test: Antiproliferative activity against human HL60 cells after 72 hrs by CellTiter-Glo assay; format: functional; settings: HL-60, 72 h
[33] = test system: CMK; test: Antiproliferative activity against human CMK cells after 72 hrs by CellTiter-Glo assay; format: functional
[34] = test system: NOMO-1; test: Antiproliferative activity against human NOMO1 cells after 72 hrs by CellTiter-Glo assay; format: functional; settings: NOMO-1, 72 h
[35] = test system: OCI-AML-3; test: Antiproliferative activity against human OCI-AML3 cells after 72 hrs by CellTiter-Glo assay; format: functional; settings: OCI-AML-3, 72 h
[36] = test system: OCI-AML2; test: Antiproliferative activity against human OCI-AML2 cells after 72 hrs by CellTiter-Glo assay; format: functional; settings: OCI-AML2, 72 h
[37] = test system: K562; test: Antiproliferative activity against human K562 cells after 72 hrs by CellTiter-Glo assay; format: functional; settings: K562, 72 h
[38] = test system: Rec1; test: Antiproliferative activity against human Rec1 cells after 72 hrs by CellTiter-Glo assay; format: functional; settings: Rec1, 72 h
[39] = test system: JVM-2; test: Antiproliferative activity against human JVM2 cells after 72 hrs by CellTiter-Glo assay; format: functional; settings: JVM-2, 72 h
[40] = test system: Z-138; test: Antiproliferative activity against human Z138 cells after 72 hrs by CellTiter-Glo assay; format: functional; settings: Z-138, 72 h
[41] = biological target: T2, Tyrosine-protein kinase BTK; test: Inhibition of recombinant full length His-tagged human BTK expressed in baculovirus expression system using poly (4:1 Glu, Tyr) as substrate preincubated for 1 hr followed by substrate addition measured after 1 hr by ADP-glo assay

T2 sequence (Q06187 whole entry): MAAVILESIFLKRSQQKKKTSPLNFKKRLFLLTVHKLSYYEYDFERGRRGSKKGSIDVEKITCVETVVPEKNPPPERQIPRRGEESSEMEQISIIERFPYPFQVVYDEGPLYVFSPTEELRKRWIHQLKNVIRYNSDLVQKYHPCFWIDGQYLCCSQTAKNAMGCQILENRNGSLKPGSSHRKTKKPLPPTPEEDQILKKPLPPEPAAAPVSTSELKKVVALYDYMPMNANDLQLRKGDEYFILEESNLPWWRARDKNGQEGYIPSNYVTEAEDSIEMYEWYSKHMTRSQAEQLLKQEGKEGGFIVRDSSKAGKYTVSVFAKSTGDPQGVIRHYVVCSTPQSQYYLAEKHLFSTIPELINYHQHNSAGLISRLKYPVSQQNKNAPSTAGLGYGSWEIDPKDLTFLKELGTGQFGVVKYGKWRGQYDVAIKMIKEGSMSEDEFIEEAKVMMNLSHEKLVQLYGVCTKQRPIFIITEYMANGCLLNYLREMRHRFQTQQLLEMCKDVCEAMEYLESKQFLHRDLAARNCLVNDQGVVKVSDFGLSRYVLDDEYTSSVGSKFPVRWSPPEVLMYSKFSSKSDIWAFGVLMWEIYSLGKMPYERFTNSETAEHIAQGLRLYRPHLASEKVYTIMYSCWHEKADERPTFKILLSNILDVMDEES
Chain of Tyrosine-protein kinase Blk (P51451 whole entry): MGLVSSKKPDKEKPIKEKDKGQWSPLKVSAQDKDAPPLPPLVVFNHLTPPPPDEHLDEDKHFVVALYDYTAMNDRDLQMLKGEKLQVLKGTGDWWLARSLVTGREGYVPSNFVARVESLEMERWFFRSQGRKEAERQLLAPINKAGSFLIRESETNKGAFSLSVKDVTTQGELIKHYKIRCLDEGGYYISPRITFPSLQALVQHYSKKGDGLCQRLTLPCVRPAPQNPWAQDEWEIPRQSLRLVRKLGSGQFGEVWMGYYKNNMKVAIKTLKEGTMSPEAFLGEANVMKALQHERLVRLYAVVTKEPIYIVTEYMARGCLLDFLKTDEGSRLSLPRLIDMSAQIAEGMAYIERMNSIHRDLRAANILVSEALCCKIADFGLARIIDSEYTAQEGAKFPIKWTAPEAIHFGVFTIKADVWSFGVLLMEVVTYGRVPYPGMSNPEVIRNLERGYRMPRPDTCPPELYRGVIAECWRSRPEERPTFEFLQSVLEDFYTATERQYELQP
Chain of Tyrosine-protein kinase JAK1 (Homo sapiens) (P23458 whole entry, the tested form may be a part): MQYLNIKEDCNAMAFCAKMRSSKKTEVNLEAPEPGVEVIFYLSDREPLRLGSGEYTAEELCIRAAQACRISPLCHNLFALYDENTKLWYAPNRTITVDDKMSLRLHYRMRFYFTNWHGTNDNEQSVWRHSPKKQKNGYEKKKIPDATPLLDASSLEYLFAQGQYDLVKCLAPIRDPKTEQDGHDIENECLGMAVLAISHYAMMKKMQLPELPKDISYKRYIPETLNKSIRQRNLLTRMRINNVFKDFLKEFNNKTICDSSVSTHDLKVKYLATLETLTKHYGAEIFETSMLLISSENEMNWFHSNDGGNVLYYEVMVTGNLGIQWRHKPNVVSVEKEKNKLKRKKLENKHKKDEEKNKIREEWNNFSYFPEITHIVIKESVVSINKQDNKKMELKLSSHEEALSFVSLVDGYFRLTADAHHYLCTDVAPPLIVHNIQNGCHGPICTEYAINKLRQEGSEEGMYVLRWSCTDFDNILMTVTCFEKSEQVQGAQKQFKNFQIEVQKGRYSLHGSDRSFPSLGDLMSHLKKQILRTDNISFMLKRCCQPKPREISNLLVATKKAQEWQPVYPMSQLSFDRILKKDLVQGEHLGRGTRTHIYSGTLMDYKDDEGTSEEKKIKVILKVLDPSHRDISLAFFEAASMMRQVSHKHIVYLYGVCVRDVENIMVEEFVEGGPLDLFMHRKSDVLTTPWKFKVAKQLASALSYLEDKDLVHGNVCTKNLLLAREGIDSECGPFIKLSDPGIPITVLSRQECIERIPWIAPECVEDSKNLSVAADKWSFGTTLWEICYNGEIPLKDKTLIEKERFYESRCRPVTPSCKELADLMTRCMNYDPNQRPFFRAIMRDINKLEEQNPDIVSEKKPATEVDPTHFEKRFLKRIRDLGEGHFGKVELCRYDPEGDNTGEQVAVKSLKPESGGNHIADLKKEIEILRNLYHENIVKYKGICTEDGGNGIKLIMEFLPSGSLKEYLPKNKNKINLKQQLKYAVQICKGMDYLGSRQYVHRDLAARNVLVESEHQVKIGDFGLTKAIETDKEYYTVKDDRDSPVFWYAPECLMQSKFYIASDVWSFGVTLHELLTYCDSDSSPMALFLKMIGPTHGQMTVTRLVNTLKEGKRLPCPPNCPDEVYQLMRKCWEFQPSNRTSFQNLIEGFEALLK
Chain of Tyrosine-protein kinase JAK2 (Homo sapiens) (O60674 whole entry, the tested form may be a part): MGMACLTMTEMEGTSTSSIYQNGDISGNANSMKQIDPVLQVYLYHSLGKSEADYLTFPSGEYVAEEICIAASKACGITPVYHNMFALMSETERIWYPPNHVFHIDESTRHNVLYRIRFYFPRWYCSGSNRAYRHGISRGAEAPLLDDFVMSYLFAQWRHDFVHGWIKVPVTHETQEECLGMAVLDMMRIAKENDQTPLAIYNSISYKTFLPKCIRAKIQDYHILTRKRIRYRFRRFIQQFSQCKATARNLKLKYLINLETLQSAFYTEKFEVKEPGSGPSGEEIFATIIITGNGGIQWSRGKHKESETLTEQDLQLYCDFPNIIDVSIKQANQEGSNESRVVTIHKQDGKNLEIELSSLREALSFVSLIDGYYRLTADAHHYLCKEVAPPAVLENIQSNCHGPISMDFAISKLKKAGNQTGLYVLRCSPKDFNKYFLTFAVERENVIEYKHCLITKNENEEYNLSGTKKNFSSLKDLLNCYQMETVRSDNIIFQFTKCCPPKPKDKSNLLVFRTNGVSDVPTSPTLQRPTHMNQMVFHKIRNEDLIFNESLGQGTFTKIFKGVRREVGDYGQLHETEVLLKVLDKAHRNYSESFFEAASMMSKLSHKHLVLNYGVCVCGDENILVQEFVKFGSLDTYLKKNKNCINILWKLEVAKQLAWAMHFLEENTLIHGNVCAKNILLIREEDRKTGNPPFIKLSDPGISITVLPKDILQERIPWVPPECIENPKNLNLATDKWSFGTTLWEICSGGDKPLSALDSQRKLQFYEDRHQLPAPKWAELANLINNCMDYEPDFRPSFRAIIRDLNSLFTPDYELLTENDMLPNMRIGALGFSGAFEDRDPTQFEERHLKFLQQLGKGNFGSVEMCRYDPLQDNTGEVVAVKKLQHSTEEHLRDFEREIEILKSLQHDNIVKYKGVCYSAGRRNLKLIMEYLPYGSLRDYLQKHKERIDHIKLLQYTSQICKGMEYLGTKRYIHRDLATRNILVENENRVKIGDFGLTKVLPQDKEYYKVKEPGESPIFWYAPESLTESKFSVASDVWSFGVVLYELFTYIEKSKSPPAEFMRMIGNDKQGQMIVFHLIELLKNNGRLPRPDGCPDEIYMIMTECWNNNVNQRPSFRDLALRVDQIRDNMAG
Chain of Epidermal growth factor receptor (Homo sapiens), P00533 [L858R,T790M] (P00533 whole entry T790M/L858R, looked up, the tested form may be a part): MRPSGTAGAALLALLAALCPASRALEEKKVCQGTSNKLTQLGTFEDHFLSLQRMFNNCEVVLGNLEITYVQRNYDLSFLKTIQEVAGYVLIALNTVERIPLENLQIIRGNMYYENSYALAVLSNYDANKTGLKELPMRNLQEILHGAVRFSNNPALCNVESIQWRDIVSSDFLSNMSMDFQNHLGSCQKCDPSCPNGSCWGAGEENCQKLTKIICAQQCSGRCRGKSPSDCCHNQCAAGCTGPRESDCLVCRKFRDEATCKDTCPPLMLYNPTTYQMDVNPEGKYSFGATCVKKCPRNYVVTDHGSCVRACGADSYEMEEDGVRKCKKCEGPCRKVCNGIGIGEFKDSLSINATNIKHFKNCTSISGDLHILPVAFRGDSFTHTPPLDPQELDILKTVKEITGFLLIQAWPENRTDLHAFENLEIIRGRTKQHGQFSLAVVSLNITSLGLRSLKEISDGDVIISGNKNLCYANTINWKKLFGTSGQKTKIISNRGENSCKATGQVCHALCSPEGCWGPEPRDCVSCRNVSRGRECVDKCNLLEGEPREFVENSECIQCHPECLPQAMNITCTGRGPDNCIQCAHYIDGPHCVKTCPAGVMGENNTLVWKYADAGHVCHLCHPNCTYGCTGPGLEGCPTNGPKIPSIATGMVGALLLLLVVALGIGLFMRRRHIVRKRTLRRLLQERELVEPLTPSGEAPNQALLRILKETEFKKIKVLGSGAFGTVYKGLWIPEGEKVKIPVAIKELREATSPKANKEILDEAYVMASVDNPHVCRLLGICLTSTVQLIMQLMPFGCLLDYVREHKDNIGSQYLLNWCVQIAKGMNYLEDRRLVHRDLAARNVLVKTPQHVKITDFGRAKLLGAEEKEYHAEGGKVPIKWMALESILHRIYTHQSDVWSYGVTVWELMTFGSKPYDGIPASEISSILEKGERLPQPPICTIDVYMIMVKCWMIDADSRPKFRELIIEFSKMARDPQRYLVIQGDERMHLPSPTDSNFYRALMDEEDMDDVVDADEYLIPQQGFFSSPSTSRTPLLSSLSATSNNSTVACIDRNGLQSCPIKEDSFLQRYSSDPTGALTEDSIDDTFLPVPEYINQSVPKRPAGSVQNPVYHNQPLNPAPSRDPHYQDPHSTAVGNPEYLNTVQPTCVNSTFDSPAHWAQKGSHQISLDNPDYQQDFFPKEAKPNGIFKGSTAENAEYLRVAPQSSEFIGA

C=CC(=O)Nc1cc(-n2c(=O)ccc3cnc4ccc(/C=C/c5ccccc5)cc4c32)ccc1C
IC50 [1]: 607 nM
IC50 [2]: 5580 nM

C=CC(=O)Nc1cc(-n2c(=O)ccc3cnc4ccc(-c5cnc6ccccc6c5)cc4c32)ccc1C
IC50 [1]: 295 nM
IC50 [2]: 983 nM

C=CC(=O)Nc1cc(-n2c(=O)ccc3cnc4ccc(-c5ccc(N)nc5)cc4c32)ccc1C
IC50 [1]: 177 nM
IC50 [2]: 177 nM

C=CC(=O)Nc1cc(-n2c(=O)ccc3cnc4ccc(-c5cn[nH]c5)cc4c32)ccc1C
Ki [3]: 2 nM
Kinact [3]: 0.14 min⁻¹
Ratio [4]: 1.17 µM⁻¹ s⁻¹

C=CC(=O)Nc1cc(-n2c(=O)ccc3cnc4ccc(-c5ccc6c(c5)OCCO6)cc4c32)ccc1C
IC50 [1]: 160 nM
IC50 [2]: 192 nM

C=CC(=O)Nc1cc(-n2c(=O)ccc3cnc4ccc(-c5ccsc5)cc4c32)ccc1C
IC50 [1]: 342 nM
IC50 [2]: 38.6 nM

C=CC(=O)Nc1cccc(-n2c(=O)ccc3cnc4ccc(-c5ccc(N)nc5)cc4c32)c1
IC50 [1]: 336 nM
IC50 [2]: 654 nM

C=CC(=O)N1CCC[C@@H](n2nc(-c3ccc(Oc4ccccc4)cc3)c3c(N)ncnc32)C1 [IBRUTINIB]
GI50 at 72 h [5]: > 10000 nM
GI50 [6]: > 10000 nM
GI50 [7]: 2760 nM
GI50 [8]: 8930 nM
GI50 [9]: 9020 nM
GI50 [10]: > 10000 nM
GI50 [11]: > 10000 nM
GI50 [12]: > 10000 nM
GI50 [13]: > 10000 nM
GI50 [14]: > 10000 nM
GI50 [15]: 1200 nM
GI50 [16]: > 10000 nM
GI50 [17]: > 10000 nM
GI50 [18]: > 10000 nM
GI50 [19]: > 10000 nM
GI50 [20]: 2200 nM
GI50 [21]: 4000 nM
GI50 [22]: 8400 nM
GI50 [23]: 6000 nM
GI50 [24]: > 10000 nM
GI50 [25]: 8500 nM
GI50 [26]: 8200 nM
GI50 [27]: 1300 nM
GI50 [28]: 1800 nM
GI50 [29]: 4400 nM
GI50 [30]: 4000 nM
GI50 [31]: 7500 nM
GI50 [32]: 3500 nM
GI50 [33]: > 10000 nM
GI50 [34]: > 10000 nM
GI50 [35]: > 10000 nM
GI50 [36]: > 10000 nM
GI50 [37]: > 10000 nM
GI50 [38]: > 10000 nM
GI50 [39]: > 10000 nM
GI50 [40]: > 10000 nM

C=CC(=O)Nc1cc(-n2c(=O)ccc3cnc4ccc(-c5ccoc5)cc4c32)ccc1C
IC50 [1]: 2090 nM
IC50 [2]: 17.4 nM

C=CC(=O)N1CCc2ccc(-n3c(=O)ccc4cnc5ccc(-c6ccc(N7CCN(C)CC7)cc6)cc5c43)cc21
IC50 [1]: > 10000 nM
IC50 [2]: 1560 nM

C=CC(=O)Nc1cc(-n2c(=O)ccc3cnc4ccc(-c5ccc(COc6cccc(C(F)(F)F)c6)cc5)cc4c32)ccc1C
IC50 [1]: 2060 nM
IC50 [2]: 650 nM

C=CC(=O)Nc1cccc(-n2c(=O)ccc3cnc4ccc(-c5cn[nH]c5)cc4c32)c1
IC50 [1]: 293 nM
IC50 [2]: 224 nM

C=CC(=O)Nc1cc(-n2c(=O)ccc3cnc4ccc(-c5cnn(C)c5)cc4c32)ccc1C
IC50 [1]: 339 nM
IC50 [2]: 343 nM

C=CC(=O)N1CCc2ccc(-n3c(=O)ccc4cnc5ccc(-c6ccc(S(=O)(=O)NC(C)(C)C)cc6)cc5c43)cc21
IC50 [1]: 83.6 nM
IC50 [2]: > 10000 nM

C=CC(=O)Nc1cc(-n2c(=O)ccc3cnc4ccc(-c5ccccc5)cc4c32)ccc1C
IC50 [2]: 25.3 nM

C=CC(=O)Nc1cc(-n2c(=O)ccc3cnc4ccc(-c5ccc(NC(=O)NC)cc5)cc4c32)ccc1C
IC50 [41]: 79.1 nM
IC50 [1]: 1130 nM
IC50 [2]: 218 nM

C=CC(=O)N1CCc2ccc(-n3c(=O)ccc4cnc5ccc(-c6cnc7ccccc7c6)cc5c43)cc21
IC50 [41]: 7.15 nM
IC50 [1]: 191 nM
IC50 [2]: 983 nM

Source: ChEMBL document CHEMBL4130348, “Structure-activity relationship investigation for benzonaphthyridinone derivatives as novel potent Bruton's tyrosine kinase (BTK) irreversible inhibitors” (Eur J Med Chem, 2017)
